Results as given in BindingDB's records for doi:10.7270/Q2RR233C (D3R/Abbott, 2020).
Several values for one entry are separate records, joined by “and”; a condition that tells them apart may be missing. Identical values can stand only once.

Target: Tyrosine-protein kinase ABL1 (Homo sapiens, UniProt P00519)
Test: D3R2026
Text: D3R2026

Sequence of Tyrosine-protein kinase ABL1 (P00519 whole entry): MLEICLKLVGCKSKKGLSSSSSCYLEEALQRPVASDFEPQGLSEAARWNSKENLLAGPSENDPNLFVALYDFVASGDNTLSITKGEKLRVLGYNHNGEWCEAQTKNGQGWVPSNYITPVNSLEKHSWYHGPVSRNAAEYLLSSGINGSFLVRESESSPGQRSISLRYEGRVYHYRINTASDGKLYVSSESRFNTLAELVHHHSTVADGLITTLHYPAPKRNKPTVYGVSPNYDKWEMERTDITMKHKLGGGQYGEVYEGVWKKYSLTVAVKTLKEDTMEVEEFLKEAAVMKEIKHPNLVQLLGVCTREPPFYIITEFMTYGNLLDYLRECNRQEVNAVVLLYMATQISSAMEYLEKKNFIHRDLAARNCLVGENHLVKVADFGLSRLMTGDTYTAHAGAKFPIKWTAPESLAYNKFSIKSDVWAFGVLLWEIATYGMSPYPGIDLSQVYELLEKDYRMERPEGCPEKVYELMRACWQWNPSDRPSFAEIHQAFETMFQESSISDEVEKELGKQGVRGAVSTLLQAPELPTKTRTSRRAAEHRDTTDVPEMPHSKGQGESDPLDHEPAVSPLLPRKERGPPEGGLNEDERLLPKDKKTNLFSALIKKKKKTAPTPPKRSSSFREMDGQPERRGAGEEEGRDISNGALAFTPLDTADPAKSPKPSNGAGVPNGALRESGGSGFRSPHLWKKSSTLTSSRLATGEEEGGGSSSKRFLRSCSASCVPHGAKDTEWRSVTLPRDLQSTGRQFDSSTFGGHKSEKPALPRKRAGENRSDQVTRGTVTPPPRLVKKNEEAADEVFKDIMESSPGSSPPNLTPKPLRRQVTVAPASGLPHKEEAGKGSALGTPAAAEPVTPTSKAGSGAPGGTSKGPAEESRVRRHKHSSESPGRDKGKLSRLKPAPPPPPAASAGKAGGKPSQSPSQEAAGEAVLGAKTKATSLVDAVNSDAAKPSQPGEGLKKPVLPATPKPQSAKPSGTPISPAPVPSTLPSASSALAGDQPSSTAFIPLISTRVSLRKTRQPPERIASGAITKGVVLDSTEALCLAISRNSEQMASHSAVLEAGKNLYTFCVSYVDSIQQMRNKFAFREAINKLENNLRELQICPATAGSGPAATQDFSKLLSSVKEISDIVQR

Kd: 4.8 µM and 10 µM and 2.2 µM and 5.4 µM
SMILES: CCOC(=O)N1CCC(n2cnc(-c3ccc(F)cc3)c2-c2ccnc(N)n2)CC1 [4-[5-(2-Amino-pyrimidin-4-yl)-4-(4-fluoro-phenyl)-imidazol-1-yl]-piperidine-1-carboxylic acid ethyl ester]
